# Experimental data taken from ChEMBL document CHEMBL5214883, “Comprehensive review for anticancer hybridized multitargeting HDAC inhibitors” (Eur J Med Chem, 2021).
# pIC50: −log10 of the molar value.
# Tests used:
# [1] = test system: K562; experiment: Cytotoxicity against human K562 cells
# [2] = test system: DU-145; experiment: Cytotoxicity against human DU-145 cells
# [3] = test system: MCF7; experiment: Cytotoxicity against human MCF7 cells; assay type: functional, cell-based
# [4] = biological target: Histone deacetylase; experiment: Inhibition of HDAC (unknown origin); assay type: protein assay, Homo sapiens
# [5] = biological target: T1, Histone deacetylase 1 (Homo sapiens, UniProt Q13547); experiment: Inhibition of human recombinant HDAC1 using Ac-Lys-Tyr-Lys (epsilon-acetyl)-AMC as substrate incubated for 24 hrs by EnVision multilabel plate reader method
# T1 sequence (Q13547 whole entry): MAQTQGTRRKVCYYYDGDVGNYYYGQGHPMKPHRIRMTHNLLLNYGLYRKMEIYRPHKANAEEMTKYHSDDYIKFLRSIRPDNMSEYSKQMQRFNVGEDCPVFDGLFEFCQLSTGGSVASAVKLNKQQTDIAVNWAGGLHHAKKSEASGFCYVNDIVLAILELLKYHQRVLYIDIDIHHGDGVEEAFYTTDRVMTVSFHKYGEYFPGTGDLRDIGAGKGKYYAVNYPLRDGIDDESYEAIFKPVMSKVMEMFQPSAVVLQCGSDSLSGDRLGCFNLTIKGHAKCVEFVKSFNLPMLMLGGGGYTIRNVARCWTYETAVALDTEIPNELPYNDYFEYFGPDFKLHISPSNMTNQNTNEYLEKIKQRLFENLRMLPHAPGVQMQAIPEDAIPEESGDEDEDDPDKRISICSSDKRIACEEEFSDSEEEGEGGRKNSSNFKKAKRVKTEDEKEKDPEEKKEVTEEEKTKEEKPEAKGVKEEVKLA
# [6] = biological target: Histone deacetylase; experiment: Inhibition of HDAC (unknown origin) by H4 Hybrid Multi-Mode Microplate Reade; assay type: protein assay, Homo sapiens
# [7] = biological target: Histone-lysine N-methyltransferase EZH2 (Homo sapiens, UniProt Q15910); experiment: Inhibition of EZH2 (unknown origin)
# Histone-lysine N-methyltransferase EZH2, sequence (Q15910 whole entry): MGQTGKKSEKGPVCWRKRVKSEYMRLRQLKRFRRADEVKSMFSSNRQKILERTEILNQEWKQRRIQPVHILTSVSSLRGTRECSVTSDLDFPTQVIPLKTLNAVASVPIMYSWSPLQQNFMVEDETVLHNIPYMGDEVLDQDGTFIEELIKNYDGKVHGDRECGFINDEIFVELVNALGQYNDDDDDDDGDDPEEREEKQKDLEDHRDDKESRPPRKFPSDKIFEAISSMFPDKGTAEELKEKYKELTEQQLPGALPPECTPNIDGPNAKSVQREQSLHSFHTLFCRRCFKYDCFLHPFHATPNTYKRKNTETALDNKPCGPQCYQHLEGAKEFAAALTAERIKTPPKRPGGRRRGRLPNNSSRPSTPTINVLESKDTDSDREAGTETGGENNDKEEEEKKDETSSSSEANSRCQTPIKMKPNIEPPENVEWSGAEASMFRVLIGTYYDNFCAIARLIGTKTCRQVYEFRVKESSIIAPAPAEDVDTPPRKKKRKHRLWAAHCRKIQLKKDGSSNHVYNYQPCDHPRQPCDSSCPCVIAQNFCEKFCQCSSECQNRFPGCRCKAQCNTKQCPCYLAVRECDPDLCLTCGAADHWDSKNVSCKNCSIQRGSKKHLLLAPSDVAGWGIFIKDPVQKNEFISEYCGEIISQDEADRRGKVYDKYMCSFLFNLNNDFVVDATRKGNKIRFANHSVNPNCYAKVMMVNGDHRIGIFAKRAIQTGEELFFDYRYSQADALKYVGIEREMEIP
# [8] = biological target: Tubulin; experiment: Inhibition of tubulin polymerization (unknown origin) incubated for 15 mins in presence of GTP by fluorescence-based tubulin polymerization assay kit; assay type: protein-complex assay, Homo sapiens
# [9] = biological target: Inhibitor of nuclear factor kappa-B kinase subunit alpha (Homo sapiens) (UniProt O15111); experiment: Inhibition of IKKa (unknown origin) at 1 uM relative to control
# [10] = biological target: Ribosomal protein S6 kinase alpha-5 (Homo sapiens) (UniProt O75582); experiment: Inhibition of MSK1 (unknown origin) at 1 uM relative to control
# Ribosomal protein S6 kinase alpha-5 (Homo sapiens), sequence (O75582 whole entry, looked up): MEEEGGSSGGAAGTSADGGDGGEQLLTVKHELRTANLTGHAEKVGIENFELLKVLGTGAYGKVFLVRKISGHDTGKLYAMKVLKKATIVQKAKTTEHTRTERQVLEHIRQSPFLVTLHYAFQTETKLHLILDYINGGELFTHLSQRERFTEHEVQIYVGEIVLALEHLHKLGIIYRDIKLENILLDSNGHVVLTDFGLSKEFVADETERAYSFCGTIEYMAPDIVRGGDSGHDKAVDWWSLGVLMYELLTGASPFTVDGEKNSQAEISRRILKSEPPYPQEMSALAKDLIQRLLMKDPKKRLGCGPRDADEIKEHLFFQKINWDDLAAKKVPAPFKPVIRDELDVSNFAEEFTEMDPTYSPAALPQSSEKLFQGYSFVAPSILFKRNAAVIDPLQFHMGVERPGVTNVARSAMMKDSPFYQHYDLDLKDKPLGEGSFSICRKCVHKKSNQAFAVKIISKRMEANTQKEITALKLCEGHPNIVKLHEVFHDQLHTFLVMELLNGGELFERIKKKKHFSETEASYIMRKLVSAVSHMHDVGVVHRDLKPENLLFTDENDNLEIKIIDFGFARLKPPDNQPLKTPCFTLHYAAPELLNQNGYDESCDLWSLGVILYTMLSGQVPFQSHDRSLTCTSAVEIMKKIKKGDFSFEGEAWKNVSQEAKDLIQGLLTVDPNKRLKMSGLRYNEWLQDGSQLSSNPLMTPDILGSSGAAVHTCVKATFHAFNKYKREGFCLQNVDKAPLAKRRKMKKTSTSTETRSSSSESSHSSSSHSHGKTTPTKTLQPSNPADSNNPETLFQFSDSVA
# [11] = biological target: T1, Histone deacetylase 1; experiment: Inhibition of HDAC1 (unknown origin)
# [12] = biological target: Bcr/Abl fusion protein (Homo sapiens, UniProt P00519); experiment: Inhibition of Bcr-Abl (unknown origin); assay type: protein assay
# [13] = biological target: Receptor tyrosine-protein kinase erbB-2 (Homo sapiens, UniProt P04626); experiment: Inhibition of HER2 (unknown origin) at 10 ug/ml using synthetic biotinylated peptide as substrate by Wallac Victor II 1420 microplate reader method relative to control; settings: dose 10.0 µg/ml
# Receptor tyrosine-protein kinase erbB-2, sequence (P04626 whole entry): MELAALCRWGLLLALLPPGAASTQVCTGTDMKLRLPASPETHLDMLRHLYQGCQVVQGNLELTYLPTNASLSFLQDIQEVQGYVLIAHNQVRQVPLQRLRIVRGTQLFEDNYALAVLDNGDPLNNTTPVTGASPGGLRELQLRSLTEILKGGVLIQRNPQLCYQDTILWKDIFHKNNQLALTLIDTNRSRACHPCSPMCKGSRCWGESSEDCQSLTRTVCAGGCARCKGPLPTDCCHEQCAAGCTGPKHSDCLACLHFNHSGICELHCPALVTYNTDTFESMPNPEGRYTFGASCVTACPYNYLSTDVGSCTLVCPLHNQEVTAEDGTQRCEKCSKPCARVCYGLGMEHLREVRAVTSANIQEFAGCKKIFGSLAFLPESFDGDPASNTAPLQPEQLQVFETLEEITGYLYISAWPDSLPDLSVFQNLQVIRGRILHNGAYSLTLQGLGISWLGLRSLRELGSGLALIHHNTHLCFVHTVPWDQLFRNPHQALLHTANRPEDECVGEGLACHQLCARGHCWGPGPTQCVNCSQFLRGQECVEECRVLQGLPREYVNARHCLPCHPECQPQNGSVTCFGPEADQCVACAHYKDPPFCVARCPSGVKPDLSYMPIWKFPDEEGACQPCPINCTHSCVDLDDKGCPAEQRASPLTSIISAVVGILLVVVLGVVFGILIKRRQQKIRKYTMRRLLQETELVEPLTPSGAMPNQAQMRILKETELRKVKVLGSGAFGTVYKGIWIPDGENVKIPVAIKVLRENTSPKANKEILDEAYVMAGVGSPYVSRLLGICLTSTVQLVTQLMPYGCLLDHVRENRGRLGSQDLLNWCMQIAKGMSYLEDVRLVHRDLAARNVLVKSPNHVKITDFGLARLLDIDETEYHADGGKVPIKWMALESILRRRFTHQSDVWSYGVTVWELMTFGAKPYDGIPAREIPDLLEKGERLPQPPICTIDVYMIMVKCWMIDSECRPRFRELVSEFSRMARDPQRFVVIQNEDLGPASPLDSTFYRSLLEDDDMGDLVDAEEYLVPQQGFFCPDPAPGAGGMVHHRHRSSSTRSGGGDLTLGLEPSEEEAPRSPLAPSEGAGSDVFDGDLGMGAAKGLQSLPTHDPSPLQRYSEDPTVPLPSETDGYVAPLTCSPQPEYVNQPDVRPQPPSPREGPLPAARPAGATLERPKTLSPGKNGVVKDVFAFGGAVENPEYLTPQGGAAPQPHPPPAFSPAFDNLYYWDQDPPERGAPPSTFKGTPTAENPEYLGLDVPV
# [14] = test system: SMMC-7721; experiment: Cytotoxicity against human SMMC-7721 cells; assay type: functional, cell-based
# [15] = test system: A549; experiment: Antiproliferative activity against human A549 cells incubated for 72 hrs by CCK-8 assay; assay type: functional, cell-based; settings: A549, 72 h
# [16] = test system: HepG2; experiment: Antiproliferative activity against human HepG2 cells incubated for 72 hrs by CCK-8 assay; assay type: functional, cell-based; settings: HepG2, 72 h
# [17] = test system: MCF7; experiment: Antiproliferative activity against human MCF7 cells incubated for 72 hrs by CCK-8 assay; assay type: functional, cell-based; settings: MCF7, 72 h
# [18] = test system: PC-3; experiment: Antiproliferative activity against human PC-3 cells incubated for 72 hrs by CCK-8 assay; assay type: functional, cell-based; settings: PC-3, 72 h
# [19] = test system: HeLa; experiment: Antiproliferative activity against human HeLa cells incubated for 72 hrs by CCK-8 assay; assay type: functional, cell-based
# [20] = biological target: T1, Histone deacetylase 1; experiment: Inhibition of HDAC1 in human HeLa cell nuclear extract using Bos-Lys(acetyl)-AMC as substrate preincubated for 5 mins followed by substrate addition incubated for 30 mins; assay type: cell-free
# [21] = test system: Epidermal growth factor receptor (Homo sapiens), P00533 [UNDEFINED MUTATION]; experiment: Inhibition of EGFR T790M (unknown origin) at 1 uM incubated for 40 mins in presence of ATP relative to control
# [22] = biological target: Vitamin D3 receptor (Homo sapiens, UniProt P11473); experiment: Agonist activity at Vitamin D receptor (unknown origin) by fluorescence polarization assay
# Vitamin D3 receptor, sequence (P11473 whole entry): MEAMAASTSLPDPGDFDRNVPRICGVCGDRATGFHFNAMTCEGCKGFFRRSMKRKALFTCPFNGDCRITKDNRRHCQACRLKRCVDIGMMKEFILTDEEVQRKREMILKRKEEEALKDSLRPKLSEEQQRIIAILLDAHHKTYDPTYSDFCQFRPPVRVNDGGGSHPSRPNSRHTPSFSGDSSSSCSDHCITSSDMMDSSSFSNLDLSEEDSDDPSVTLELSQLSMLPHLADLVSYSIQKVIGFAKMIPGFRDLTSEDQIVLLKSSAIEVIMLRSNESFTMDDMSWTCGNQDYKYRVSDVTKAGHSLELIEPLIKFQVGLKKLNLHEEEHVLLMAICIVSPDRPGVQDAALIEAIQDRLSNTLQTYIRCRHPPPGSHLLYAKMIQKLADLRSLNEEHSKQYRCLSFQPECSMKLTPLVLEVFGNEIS
# [23] = test system: DU-145; experiment: Antiproliferative activity against human DU-145 cells incubated for 48 hrs by Sulforhodamine B staining method; assay type: functional, cell-based; settings: DU-145, 48 h
# [24] = biological target: Epidermal growth factor receptor (Homo sapiens, UniProt P00533); experiment: Inhibition of EGFR (unknown origin)
# [25] = biological target: Vascular endothelial growth factor receptor 2 (Homo sapiens, UniProt P35968); experiment: Inhibition of VEGFR2 (unknown origin)
# Vascular endothelial growth factor receptor 2, sequence (P35968 whole entry): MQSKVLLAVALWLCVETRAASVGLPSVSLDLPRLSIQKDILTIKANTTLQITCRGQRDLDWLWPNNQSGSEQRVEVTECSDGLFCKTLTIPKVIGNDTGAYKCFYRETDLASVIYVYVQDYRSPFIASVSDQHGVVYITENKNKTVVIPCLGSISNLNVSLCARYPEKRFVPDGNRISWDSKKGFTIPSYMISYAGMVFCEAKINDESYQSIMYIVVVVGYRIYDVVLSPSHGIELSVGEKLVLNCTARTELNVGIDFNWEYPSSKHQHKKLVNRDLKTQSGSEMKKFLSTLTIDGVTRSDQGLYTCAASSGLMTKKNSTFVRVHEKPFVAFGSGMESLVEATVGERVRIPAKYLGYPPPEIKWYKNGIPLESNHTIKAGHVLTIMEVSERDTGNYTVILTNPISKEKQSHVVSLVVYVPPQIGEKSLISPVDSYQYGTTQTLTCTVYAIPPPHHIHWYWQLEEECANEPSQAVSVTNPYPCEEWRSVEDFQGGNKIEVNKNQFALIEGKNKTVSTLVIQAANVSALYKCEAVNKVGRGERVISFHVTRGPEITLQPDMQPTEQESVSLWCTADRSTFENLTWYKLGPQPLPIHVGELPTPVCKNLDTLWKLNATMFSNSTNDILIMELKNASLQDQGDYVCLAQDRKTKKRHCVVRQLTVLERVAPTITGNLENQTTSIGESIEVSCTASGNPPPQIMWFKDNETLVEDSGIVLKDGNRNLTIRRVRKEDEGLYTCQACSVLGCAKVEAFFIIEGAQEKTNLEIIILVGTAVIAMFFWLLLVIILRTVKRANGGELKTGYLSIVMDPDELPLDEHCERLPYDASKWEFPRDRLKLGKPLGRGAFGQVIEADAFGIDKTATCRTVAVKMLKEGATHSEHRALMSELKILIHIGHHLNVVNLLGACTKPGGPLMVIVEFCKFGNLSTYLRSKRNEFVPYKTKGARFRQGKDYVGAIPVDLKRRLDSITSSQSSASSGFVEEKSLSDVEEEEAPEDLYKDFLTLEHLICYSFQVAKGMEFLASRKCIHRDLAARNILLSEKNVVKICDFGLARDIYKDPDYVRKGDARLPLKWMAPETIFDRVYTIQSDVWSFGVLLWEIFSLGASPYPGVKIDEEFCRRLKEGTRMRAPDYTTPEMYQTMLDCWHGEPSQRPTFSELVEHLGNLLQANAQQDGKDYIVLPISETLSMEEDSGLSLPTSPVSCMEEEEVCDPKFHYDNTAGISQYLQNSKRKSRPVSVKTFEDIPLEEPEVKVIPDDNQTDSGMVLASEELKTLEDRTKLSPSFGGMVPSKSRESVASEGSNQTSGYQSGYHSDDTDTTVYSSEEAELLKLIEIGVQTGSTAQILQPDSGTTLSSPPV
# [26] = test system: Panel NCI-60 (60 carcinoma cell lines); experiment: Cytotoxicity against human Panel NCI-60 (60 carcinoma cell lines); assay type: functional, cell-based
# [27] = biological target: T2, Protein deacetylase HDAC6 (Homo sapiens, UniProt Q9UBN7); experiment: Inhibition of HDAC6 (unknown origin)
# T2 sequence (Q9UBN7 whole entry): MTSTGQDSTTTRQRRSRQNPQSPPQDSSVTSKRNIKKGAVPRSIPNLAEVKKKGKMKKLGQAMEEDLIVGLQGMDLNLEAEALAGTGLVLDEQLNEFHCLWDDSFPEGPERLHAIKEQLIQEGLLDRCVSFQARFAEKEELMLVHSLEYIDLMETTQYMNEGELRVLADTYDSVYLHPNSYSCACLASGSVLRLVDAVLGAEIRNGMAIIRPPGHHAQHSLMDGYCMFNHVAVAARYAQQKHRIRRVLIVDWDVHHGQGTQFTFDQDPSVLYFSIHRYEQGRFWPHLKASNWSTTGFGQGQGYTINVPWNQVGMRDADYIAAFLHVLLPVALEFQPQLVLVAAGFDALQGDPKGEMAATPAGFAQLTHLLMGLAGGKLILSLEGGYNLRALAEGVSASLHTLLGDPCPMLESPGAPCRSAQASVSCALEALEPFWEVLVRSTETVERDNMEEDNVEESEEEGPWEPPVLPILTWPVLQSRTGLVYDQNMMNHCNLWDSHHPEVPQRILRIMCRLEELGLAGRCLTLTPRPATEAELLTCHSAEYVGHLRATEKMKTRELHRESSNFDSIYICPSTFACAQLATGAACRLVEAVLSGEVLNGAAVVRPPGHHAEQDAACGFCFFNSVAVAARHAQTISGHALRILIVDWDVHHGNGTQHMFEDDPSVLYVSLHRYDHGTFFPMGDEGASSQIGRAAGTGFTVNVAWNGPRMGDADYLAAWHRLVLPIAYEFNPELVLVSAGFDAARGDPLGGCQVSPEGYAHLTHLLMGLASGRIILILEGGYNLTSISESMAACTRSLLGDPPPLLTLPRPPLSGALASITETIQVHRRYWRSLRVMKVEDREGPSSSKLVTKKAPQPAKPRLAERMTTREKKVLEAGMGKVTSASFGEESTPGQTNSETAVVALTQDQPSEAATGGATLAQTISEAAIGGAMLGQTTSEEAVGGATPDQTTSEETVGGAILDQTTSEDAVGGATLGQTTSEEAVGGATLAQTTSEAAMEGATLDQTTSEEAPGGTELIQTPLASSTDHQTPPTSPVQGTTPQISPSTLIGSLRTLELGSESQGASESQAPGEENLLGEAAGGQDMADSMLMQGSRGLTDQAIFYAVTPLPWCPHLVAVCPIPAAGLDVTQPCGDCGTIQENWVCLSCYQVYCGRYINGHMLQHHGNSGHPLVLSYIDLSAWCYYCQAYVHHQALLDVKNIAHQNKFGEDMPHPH
# [28] = biological target: Histone deacetylase 8 (Homo sapiens, UniProt Q9BY41); experiment: Inhibition of HDAC8 (unknown origin)
compound,measurement,setting,value
Nc1ccccc1NC(=O)c1ccc(CNC(=O)OCc2cccnc2)cc1 [ENTINOSTAT],pIC50,[1],4.67
same,pIC50,[2],5.43
COc1cc2/c(=N/c3ccc(Br)cc3F)nc[nH]c2cc1OCC1CCN(C)CC1 [VANDETANIB],pIC50,[3],4.73
same,IC50,[4],> 10 µM
CNC(=O)c1cc(Oc2ccc(NC(=O)c3cccc(O)c3)cc2)ccc1N,IC50,[4],1.95 µM
COc1cc2ncnc(Nc3cccc(/C=C/C(=O)NO)c3)c2cc1OCCCN1CCOCC1,pIC50,[5],6.82
O=C(CCCCCN1CC(=O)N2[C@@H](CC3c4ccccc4NC3[C@@H]2c2ccc(Br)cc2)C1=O)NO (stereo partly drawn),IC50,[6],0.0612 µM
CNC(=O)c1cc(Oc2ccc(NC(=O)c3cccc(N)c3)cc2)ccc1N,IC50,[4],1.03 µM
Cc1cc(C)c(CNC(=O)c2cnn(-c3ccccc3)c2C)c(=O)[nH]1,pIC50,[7],5.24
C[C@H]1COc2c(N3CCN(C)CC3)c(F)cc3c(=O)c(C(=O)OCc4cn(CCCCCC(=O)NO)nn4)cn1c23,pIC50,[8],5.26
CCN1CCN(Cc2ccc(Nc3ncc(F)c(-c4cc(F)c5nc(C)n(C(C)C)c5c4)n3)nc2)CC1,inhibition,[9],80%
same,inhibition,[10],1%
CCN1CCN(c2cc(Nc3ncc(C(=O)Nc4ccccc4N)s3)nc(C)n2)CC1,pIC50,[11],6.82
same,pIC50,[12],4.67
same,pIC50,[1],5.59
same,pIC50,[2],5.24
CN(C)C(=O)c1cc(Oc2ccc(NC(=O)c3ccc(Cl)c(C(F)(F)F)c3)cc2)ccc1N,IC50,[4],> 1000 µM
COCCOc1cc2ncnc(Nc3ccc(/C=C/C(=O)NO)cc3)c2cc1OCCOC,inhibition,[13],64.2%
CNC(=O)c1cc(Oc2ccc(NC(=O)c3ccc(N)cc3)cc2)ccc1N,IC50,[4],2.27 µM
Cc1cc(C)c(CNC(=O)c2cc(C)n(-c3ccccc3)c2C)c(=O)[nH]1,pIC50,[7],4.81
CC(C)=CCC/C(C)=C\CC/C(C)=C\CSc1ccccc1C(=O)NCCCCC(=O)NO,pIC50,[11],9.24
same,pIC50,[14],5.31
C[C@H]1COc2c(N3CCN(C)CC3)c(F)cc3c(=O)c(C(=O)O)cn1c23 [LEVOFLOXACIN],pIC50,[15],< 4.15
same,pIC50,[16],< 4.15
same,pIC50,[17],< 4.15
same,pIC50,[18],< 4.15
same,pIC50,[19],< 4.15
same,pIC50,[8],4.95
C[C@H]1COc2c(N3CCN(C)CC3)c(F)cc3c(=O)c(C(=O)NCc4cn(CCCCCCC(=O)NO)nn4)cn1c23,pIC50,[8],5.75
COc1cc(NC(=O)CCCCCC(=O)NO)ccc1Nc1nccc(-c2cn(C)c3ccccc23)n1,pIC50,[20],6.92
same,inhibition,[21],13%
CC(/C=C/C(=O)NO)=C\[C@@H](C)C(=O)c1ccc(N(C)C)cc1 [TRICHOSTATIN],pIC50,[22],7.06
O=C(CCCCCCC(=O)Nc1ccccc1)NO [VORINOSTAT],pIC50,[23],6.10
same,pIC50,[24],7.92
same,pIC50,[25],< 5.00
Cn1c(CCCC(=O)O)nc2cc(N(CCCl)CCCl)ccc21 [BENDAMUSTINE],pIC50,[26],7.11
CN(CCOc1no[n+]([O-])c1S(=O)(=O)c1ccccc1)C(=O)c1ccc(/C=C/C(=O)NO)cc1,pIC50,[27],6.80
same,pIC50,[28],6.59
